Data reported in US7858649B2, “Imidazole derivatives and their use for modulating the GABAA receptor complex” (Neurosearch A/S, priority 2005, dated 2010).
pIC50: −log10 of the molar value.

How the values were obtained:
[1] = biological target: benzodiazepine binding site on GABAA receptors (rat cerebral cortex membranes); experiment: In vitro inhibition of 3H-flunitrazepam (3H-FNM) binding; conditions: inhibition of specific binding of 3H-FNM (1 nM), cerebral cortex membranes from male Wistar rats, 40 min at 2° C.
Procedure: In Vitro Inhibition of ^3H-flunitrazepam (^3H-FNM) Binding
The GABA recognition site and the benzodiazepine modulatory unit can selectively be labelled with ^3H-flunitrazepam.
Preparations are performed at 0-4° C. unless otherwise indicated. Cerebral cortex from male Wistar rats (150-200 g) is homogenised for 5-10 sec in 20 ml Tris-HCl (30 mM, pH 7.4) using an Ultra-Turrax homogeniser. The suspension is centrifuged at 27,000×g for 15 min and the pellet is washed three times with buffer (centrifuged at 27,000×g for 10 min). The washed pellet is homogenized in 20 ml of buffer and incubated on a water bath (37° C.) for 30 min to remove endogenous GABA and then centrifuged for 10 min at 27,000×g. The pellet is then homogenized in buffer and centrifuged for 10 min at 27,000×g. The final pellet is resuspended in 30 ml buffer and the preparation is frozen and stored at −20° C.
The membrane preparation is thawed and centrifuged at 2° C. for 10 min at 27,000×g. The pellet is washed twice with 20 ml 50 mM Tris-citrate, pH 7.1 using an Ultra-Turrax homogeniser and centrifuged for 10 min at 27,000×g. The final pellet is resuspended in 50 mM Tris-citrate, pH 7.1 (500 ml buffer per g of original tissue), and then used for binding assays. Aliquots of 0.5 ml tissue are added to 25 μl of test solution and 25 μl of ^3H-FNM (1 nM, final concentration), mixed and incubated for 40 min at 2° C. Non-specific binding is determined using Clonazepam (1 μM, final concentration). After incubation the samples are added 5 ml of ice-cold buffer and poured directly onto Whatman GF/C glass fibre filters under suction and immediately washed with 5 ml ice-cold buffer. The amount of radioactivity on the filters is determined by conventional liquid scintillation counting. Specific binding is total binding minus non-specific binding.
25-75% inhibition of specific binding must be obtained, before calculation of an IC50.
The test value will be given as IC50 (the concentration (μM) of the test substance which inhibits the specific binding of ^3H-FNM by 50%).
Co is specific binding in control assays, and […]

SMILES	melting point	pIC50 [1]
Cc1noc(-c2cn(-c3cccc(Br)c3)cn2)n1	200.1 to 202.4 °C	–
Cc1noc(-c2cn(-c3cccc(-c4ccc(F)nc4)c3)cn2)n1 [2-Fluoro-5-{3-[4-(3-methyl-[1,2,4]oxadiazol-5-yl)-imidazol-1-yl]-phenyl}-pyridine]	–	7.22
Cc1noc(-c2cn(-c3cccc(-c4ccccc4F)c3)cn2)n1 [3-Methyl-5-[1-(2′-fluoro-biphenyl-3-yl)-1H-imidazol-4-yl]-[1,2,4]oxadiazole]	–	7.48
Cc1noc(-c2cn(-c3cccc(-c4ccccc4OC(F)(F)F)c3)cn2)n1 [3-Methyl-5-[1-(2′-trifluoromethoxy-biphenyl-3-yl)-1H-imidazol-4-yl]-[1,2,4]oxadiazole]	141.6 to 143.9 °C	7.77
